# According to EP0092073A1, “Magnesium salt of chenodeoxycholic acid and ursodeoxycholic acid, the process for its preparation, and therapeutic compositions which contain it as active principle” (SCHWARZ ITALIA S.p.A., priority 1982, dated 1983):
# Like-named read-outs stand apart in the source and are kept apart here.
# Legend:
# hampsters [1] = assay: Bile lipid and bile acid contents of the bile (cholesterol-enriched diet, 80 days); format: in vivo
# Procedure: (§1) The investigations were carried out on hampsters (of female sex, but excluding those in a state of pregnancy) having an initial weight of 75-90 g. They were treated for 80 days with oral administration (by gastric probe) of MG-UCD (10-20 mg/kg/day), chenodeoxycholic acid (10-20 mg/kg/day) or ursodeoxycholic acid (10-20 mg/kg/day) (Tables 4 and 5). The animals were maintained for 80 consecutive days on a Nossan feed diet for rats, enriched with cholesterol (2 mg/g of food).
# (§2) Each experimental group consisted of 10 units. After 80 days, the animals were narcotised with ethyl ether, and the bile was withdrawn, together with the calculi and crystals from the gall-bladder as described by Pearlman and coll. in Gastroenterology 77, 634 (1979).
# The bile acid, phospholipid, cholesterol, cholic acid, chenodeoxycholic acid, ursodeoxycholic acid, DCA (deoxycholic acid) and LCA (lithocholic acid) contents were evaluated in the bile by the methods described by Pearlman and coll. (see above).
# patients = assay: Controlled study in comparison with the free acids; tolerability in patients; format: in vivo; conditions: patients
# hampsters [2] = assay: Action on the formation of cholesterol calculi in the gall-bladder (cholesterol-enriched diet, 80 days); format: in vivo; conditions: female hampsters; for % animals with calculi / % animals with crystals: cholesterol-enriched diet
# Procedure: as §1, §2
# [3] = Acute lethality and toxicity, oral administration (gastric probe); format: in vivo, Mus musculus; design: key to Toxic symptomatology Type: NN = no symptomatology; D = depression; conditions: in vivo, po; for mortality at 24 h / mortality at 168 h: oral; for mortality at 24 h: read-out: % mortality at following times after administration 24 h; for mortality at 168 h: read-out: % mortality at following times after administration 7 days; for LD50 at 168 h: probit method, read-out: LD50 (mg/kg with reliability limits) 7 days after treatment
# Procedure: (§3) Unless otherwise specified, the research was carried out using: a) Mg-UCD capsules as such; b) the powdered contents of Mg-UCD capsules; CDCA (chenodeoxycholic acid) and UDCA (ursodeoxycholic acid) as pure substance which in all cases was partly dissolved and partly suspended under warm conditions (T = 30°C) in 10% gum arabic mucilage (so as to administer 10-40 ml of liquid per kg orally). In certain cases, namely in the experiments involving parenteral administration, the active principle of Mg-UCD, the chenodeoxycholic acid and ursodeoxycholic acid were dissolved in distilled water of slightly alkaline pH (5-10 ml/kg).
# (§4) The generally acute lethality, toxicity and tolerability were determined by oral administration of the Mg-UCD (by gastric probe) in the Mus musculus, rat and dog. Animals of both sexes were used, none of which were pregnant. They were fasted for about 12 hours before treatment (but allowing them free access to water). The investigations were carried out using the Mg-UCD in powder form. Comparative investigations were carried out on the rat and Mus musculus using the active principle by endoperitoneal administration, and chenodeoxycholic acid and ursodeoxycholic acid by oral administration (using a gastric probe). Each dose was administered to 20 rats or Mus musculus (10 male and 10 female) and to eight dogs (4 male and 4 female). The animals were observed attentively during the 7 days following administration, and any lethality, toxic symptoms, disturbances, functional variations determinable with the eye, behaviour etc. were noted.
# (§5) The LD50 was determined 7 days after administration using the probit method.
# rat = assay: as above; format: in vivo; design: key to Toxic symptomatology Type: NN = no symptomatology; D = depression; conditions: oral
# Procedure: as §3, §4, §5
# Mus musculus = assay: as above; format: in vivo; design: key to Toxic symptomatology Type: NN = no symptomatology; D = depression; conditions: oral
# Procedure: as §3, §4, §5
# [4] = mouse, 2000 mg/kg, M. musculus F, 2000 mg/kg
# [5] = mouse, 2000 mg/kg, M. musculus M, 2000 mg/kg
# [6] = mouse, 4000 mg/kg, M. musculus F, 4000 mg/kg
# [7] = mouse, 4000 mg/kg, M. musculus M, 4000 mg/kg
# [8] = mouse, 8000 mg/kg, M. musculus F, 8000 mg/kg
# [9] = mouse, 8000 mg/kg, M. musculus M, 8000 mg/kg
# [10] = rat, 2000 mg/kg, Rat F, 2000 mg/kg
# [11] = rat, 2000 mg/kg, Rat M, 2000 mg/kg
# [12] = rat, 4000 mg/kg, Rat F, 4000 mg/kg
# [13] = rat, 4000 mg/kg, Rat M, 4000 mg/kg
# [14] = rat, 8000 mg/kg, Rat F, 8000 mg/kg
# [15] = rat, 8000 mg/kg, Rat M, 8000 mg/kg
compound,measurement,setting,value
"C[C@H](CCC(=O)O)[C@H]1CC[C@H]2[C@@H]3[C@H](O)C[C@@H]4C[C@H](O)CC[C@]4(C)[C@H]3CC[C@]12C [Chenodeoxycholic acid, 17β-(1-methyl-3-carboxypropyl)-ethiocholane-3α, 7α-diol]",Bile acids (expressed as molar % ± s.e.) Cheno-deoxycholic acid,hampsters [1]; 10 mg/kg/day oral for 80 days,42.1 ± 3.6 molar %
same,Bile acids (expressed as molar % ± s.e.) Cholic acid,hampsters [1]; 10 mg/kg/day oral for 80 days,29.6 ± 2.6 molar %
same,Bile acids (expressed as molar % ± s.e.) DCA,hampsters [1]; 10 mg/kg/day oral for 80 days,12.7 ± 0.6 molar %
same,Bile acids (expressed as molar % ± s.e.) LCA,hampsters [1]; 10 mg/kg/day oral for 80 days,3.2 ± 0.1 molar %
same,Bile acids (expressed as molar % ± s.e.) Urso-deoxycholic acid,hampsters [1]; 10 mg/kg/day oral for 80 days,6.6 ± 0.4 molar %
same,Bile lipids (expressed as molar % ± s.e.) Bile acids,hampsters [1]; 10 mg/kg/day oral for 80 days,79.5 ± 5.6 molar %
same,Bile lipids (expressed as molar % ± s.e.) Cholesterol,hampsters [1]; 10 mg/kg/day oral for 80 days,7.2 ± 0.2 molar %
same,Bile lipids (expressed as molar % ± s.e.) Phospho-lipids,hampsters [1]; 10 mg/kg/day oral for 80 days,16.0 ± 1.8 molar %
same,Bile acids (expressed as molar % ± s.e.) Cheno-deoxycholic acid,hampsters [1]; 20 mg/kg/day oral for 80 days,66.0 ± 4.7 molar %
same,Bile acids (expressed as molar % ± s.e.) Cholic acid,hampsters [1]; 20 mg/kg/day oral for 80 days,18.7 ± 2.1 molar %
same,Bile acids (expressed as molar % ± s.e.) DCA,hampsters [1]; 20 mg/kg/day oral for 80 days,10.4 ± 0.2 molar %
same,Bile acids (expressed as molar % ± s.e.) LCA,hampsters [1]; 20 mg/kg/day oral for 80 days,3.4 ± 0.3 molar %
same,Bile acids (expressed as molar % ± s.e.) Urso-deoxycholic acid,hampsters [1]; 20 mg/kg/day oral for 80 days,7.8 ± 0.3 molar %
same,Bile lipids (expressed as molar % ± s.e.) Bile acids,hampsters [1]; 20 mg/kg/day oral for 80 days,80.2 ± 3.8 molar %
same,Bile lipids (expressed as molar % ± s.e.) Cholesterol,hampsters [1]; 20 mg/kg/day oral for 80 days,5.9 ± 0.3 molar %
same,Bile lipids (expressed as molar % ± s.e.) Phospho-lipids,hampsters [1]; 20 mg/kg/day oral for 80 days,15.8 ± 1.3 molar %
same,side effects,patients,"diarrhoea, and, in certain cases, transaminase increase"
same,% animals with calculi,hampsters [2]; 10 mg/kg/day oral for 80 days,50%
same,% animals with crystals,hampsters [2]; 10 mg/kg/day oral for 80 days,30%
same,% animals with calculi,hampsters [2]; 20 mg/kg/day oral for 80 days,0%
same,% animals with crystals,hampsters [2]; 20 mg/kg/day oral for 80 days,0%
same,Body weight (g ± s.e.) after following days 80,"hampsters [2]; day 80, oral, 10 mg/kg/day",148 ± 9 g
same,mortality at 24 h,[3]; [4],0%
same,mortality at 168 h,[3]; [4],0%
same,mortality at 24 h,[3]; [5],0%
same,mortality at 168 h,[3]; [5],0%
same,mortality at 24 h,[3]; [6],30%
same,mortality at 168 h,[3]; [6],30%
same,mortality at 24 h,[3]; [7],30%
same,mortality at 168 h,[3]; [7],30%
same,mortality at 24 h,[3]; [8],80%
same,mortality at 168 h,[3]; [8],80%
same,mortality at 24 h,[3]; [9],80%
same,mortality at 168 h,[3]; [9],80%
same,LD50 at 168 h,"[3]; mouse, M. musculus F",5280 mg/kg
same,LD50 at 168 h,"[3]; mouse, M. musculus M",5280 mg/kg
same,mortality at 24 h,[3]; [10],0%
same,mortality at 168 h,[3]; [10],0%
same,mortality at 24 h,[3]; [11],0%
same,mortality at 168 h,[3]; [11],0%
same,mortality at 24 h,[3]; [12],30%
same,mortality at 168 h,[3]; [12],30%
same,mortality at 24 h,[3]; [13],40%
same,mortality at 168 h,[3]; [13],40%
same,mortality at 24 h,[3]; [14],90%
same,mortality at 168 h,[3]; [14],90%
same,mortality at 24 h,[3]; [15],80%
same,mortality at 168 h,[3]; [15],80%
same,LD50 at 168 h,"[3]; rat, Rat F",4890 mg/kg
same,LD50 at 168 h,"[3]; rat, Rat M",4010 mg/kg
same,Toxic symptomatology Latency,"rat; Rat F, 2000 mg/kg",5-10 min
same,Toxic symptomatology Type,"rat; Rat F, 2000 mg/kg",D
same,Toxic symptomatology Latency,"rat; Rat F, 4000 mg/kg",5-10 min
same,Toxic symptomatology Type,"rat; Rat F, 4000 mg/kg",D
same,Toxic symptomatology Latency,"rat; Rat F, 8000 mg/kg",5-10 min
same,Toxic symptomatology Type,"rat; Rat F, 8000 mg/kg",D
same,Toxic symptomatology Latency,"rat; Rat M, 2000 mg/kg",5-10 min
same,Toxic symptomatology Type,"rat; Rat M, 2000 mg/kg",D
same,Toxic symptomatology Latency,"rat; Rat M, 4000 mg/kg",5-10 min
same,Toxic symptomatology Type,"rat; Rat M, 4000 mg/kg",D
same,Toxic symptomatology Latency,"rat; Rat M, 8000 mg/kg",5-10 min
same,Toxic symptomatology Type,"rat; Rat M, 8000 mg/kg",D
same,Toxic symptomatology Latency,"Mus musculus; M. musculus F, 2000 mg/kg",5-10 min
same,Toxic symptomatology Type,"Mus musculus; M. musculus F, 2000 mg/kg",D
same,Toxic symptomatology Latency,"Mus musculus; M. musculus F, 4000 mg/kg",5-10 min
same,Toxic symptomatology Type,"Mus musculus; M. musculus F, 4000 mg/kg",D
same,Toxic symptomatology Latency,"Mus musculus; M. musculus F, 8000 mg/kg",5-10 min
same,Toxic symptomatology Type,"Mus musculus; M. musculus F, 8000 mg/kg",D
same,Toxic symptomatology Latency,"Mus musculus; M. musculus M, 2000 mg/kg",5-10 min
same,Toxic symptomatology Type,"Mus musculus; M. musculus M, 2000 mg/kg",D
same,Toxic symptomatology Latency,"Mus musculus; M. musculus M, 4000 mg/kg",5-10 min
same,Toxic symptomatology Type,"Mus musculus; M. musculus M, 4000 mg/kg",D
same,Toxic symptomatology Latency,"Mus musculus; M. musculus M, 8000 mg/kg",5-10 min
same,Toxic symptomatology Type,"Mus musculus; M. musculus M, 8000 mg/kg",D
